# Calls of active or inactive are those of the source. The calls are words filed in the database; no cut-off is given here.
# What was measured:
# Vibrio cholerae = assay: Inhibitory activity against Vibrio cholerae sialidase at mM concentration, Not significant
# Trypanosoma cruzi [1] = assay: Km value for hydrolase activity of Trypanosoma cruzi trans-sialidase
# Trypanosoma cruzi [2] = assay: Km value for transferase activity of Trypanosoma cruzi trans-sialidase
compound,measurement,setting,value
CCCCCCCCOC1OC(CO)C(O)C(SC2(C(=O)O)CC(O)C(NC(C)=O)C([C@H](O)[C@H](O)CO)O2)C1O (stereo partly drawn),inhibition,Vibrio cholerae,inactive
same,Km,Trypanosoma cruzi [1],> 5 mM
same,Km,Trypanosoma cruzi [2],> 5 mM

# Source: ChEMBL document CHEMBL1133992, “Hydrolase and sialyltransferase activities of trypanosoma cruzi trans-sialidase towards NeuAc-alpha-2,3-gal-Gal-beta-O-PNP” (Bioorg Med Chem Lett, 2001)
